Results as given in US9901592B2 (priority 2008, dated 2018).
≈ marks a conversion by molar mass, not a printed value. Where two headings read alike, the source gives them in different places.

Experiments:
[1] = test system: M. pneumoniae; assay: microbe, parasite or virus in culture; assay type: cell-based; settings: Mycoplasmoides pneumoniae
[2] = test system: M. genitalium; assay type: cell-based; settings: M. genitalium (5 isolates)
[3] = test system: M. hominis; assay type: cell-based; settings: M. hominis (13 isolates)
[4] = test system: U. urealyticum; assay: MIC testing in 10B broth (colour change); assay type: cell-based; settings: U. urealyticum (10 isolates)
[5] = test system: intraphagocytic L. pneumophila ATCC 33153 (THP-1); assay type: cell-based; settings: L. pneumophila ATCC 33153, 48 h
[6] = test system: S. pyogenes 3029; assay: Intraperitoneal (IP) mouse infection model (ED50); assay type: in vivo; settings: Streptococcus pyogenes, MAC-R S. pyogenes 3029
[7] = test system: S. pneumoniae; assay: mouse systemic infection model (PD50); assay type: in vivo
[8] = test system: S. pyogenes; assay: mouse systemic infection model (PD50); assay type: in vivo
[9] = test system: S. pyogenes ATCC 8668; assay: mouse subcutaneous abscess model; assay type: in vivo; settings: 48 hr. post infection
Method: Example. Mouse Subcutaneous Abscess. Bacteria were prepared from an overnight plate culture by re-suspending in saline and adjusting the suspension to a 0.1 OD at 625 nm of a 1:10 dilution. The adjusted bacterial suspension was mixed 1:2 with cyclodextran beads prepared as per package instructions. The right flanks of the mice were shaven and injected subcutaneously with 0.2 ml of the bacterial inoculum. Two hours post infection mice were treated via oral gavage with either test article or control drug. 48 hours post infection, mice were euthanized, abscesses aseptically removed, homogenized, serially diluted and plated on bacterial growth agar. After overnight incubation, colonies were counted and CFUs/gram of abscess were determined.
Example. Mouse Subcutaneous Abscess˜S. pyogenes ATCC 8668 (Average Log10 CFU/gram of Abscess). Abscess processing 48 hours post infection.

[10] = test system: S. pneumoniae; assay: neutropenic mouse thigh infection; assay type: in vivo; settings: PO
Method: Example. Neutropenic Mouse Thigh Infection. Mice were rendered neutropenic with IP injections of cyclophosamide at day −4 and day −1 of 150 mg/Kg and 100 mg/Kg, respectively. On day 0 mice were infected with approximately 5×10^5 CFU/ml of bacteria in a 0.1 ml volume into the right thigh. At 1.5 hours post infection mice received treatment via oral gavage. One group of infected mice were euthanized and thigh processed for bacterial titers to serve as T=0 controls. Twenty-four hours post treatment, the remaining mice were euthanized, thighs aseptically removed, weighed, homogenized, serially diluted and plated on bacterial growth media. CFUs per gram of thigh were calculated after overnight incubation of bacterial plates. The amount of test article required to achieve 1, 2, and 3 loge reductions from 24 hour control thighs were calculated. Additional studies were performed that fractionated the single treatment dose (Q24) into two (Q12), three (Q8) and four (Q6) equivalent doses to determine the pharmacodynamic nature of this compound. Further analysis includes static dose, EC50, 1 log kill and maximal effect (Emax).

[11] = test system: M. catarrhalis; assay: microbe, parasite or virus in culture; assay type: cell-based
[12] = test system: streptococci; assay: organism not typed; assay type: cell-based

CC[C@H]1OC(=O)[C@@](C)(F)C(=O)[C@H](C)[C@@H](OC2OC(C)CC(N(C)C)C2O)[C@@](C)(OC)C[C@@H](C)C(=O)[C@H](C)[C@H]2N(CCCCn3cc(-c4cccc(N)c4)nn3)C(=O)O[C@]12C (stereo partly drawn) [CEM-101, 11-N-4-(3-aminophenyl)-[1,2,3]triazol-1-yl]-butyl}-5-desosaminyl-3-oxo-2-fluoro-erythronolide A,-11,12-cyclic carbamate]
MIC50 [1]: 0.032 ng/mL (≈ 0.0379 nM) | MIC Range [2]: ≦0.000032 μg/mL | MIC Range [3]: 2 to 8 ng/mL | MIC50 ([3]; Metamycoplasma hominis, read-out: MIC50): 4 ng/mL (≈ 4.73 nM) | MIC90 ([3]; Metamycoplasma hominis, read-out: MIC90): 8 ng/mL (≈ 9.47 nM) | MIC Range [4]: 4 to 63 ng/mL | MIC50 ([4]; Ureaplasma urealyticum): 8 ng/mL (≈ 9.47 nM) | MIC90 ([4]; Ureaplasma urealyticum): 31 ng/mL (≈ 36.7 nM) | Cs [5]: 4.56 ×MIC | ED50 [6]: 2.5 mg/kg | PD50 ([7]; S. pneumoniae (macrolide susceptible)): 6.0 mg/kg | PD50 ([7]; S. pneumoniae (mefR)): 23.2 mg/kg | PD50 ([7]; S. pneumoniae serotype 19A): 6.6 mg/kg | PD50 ([8]; S. pyogenes (erythromycin R)): 5.1 mg/kg | PD50 ([8]; S. pyogenes (macrolide susceptible)): 9.4 mg/kg | Average Log10 CFU/gram of Abscess ([9]; 10 mg/Kg): 5.35 Log10 CFU/gram | Average Log10 CFU/gram of Abscess ([9]; 20 mg/Kg): 2.53 Log10 CFU/gram | Max. change in log10CFUs from 24 hr. controls ([10]; S. pneumoniae 1629): −5.81 log10CFUs | Dose for 2 log10 Reduction from 24 hour controls ([10]; S. pneumoniae 1629, QD): 7.0 mg/Kg | Max. change in log10CFUs from 24 hr. controls ([10]; S. pneumoniae 6303): −6.17 log10CFUs | Emax ([10]; S. pneumoniae 6303, Q6): 5.83 log10CFU/thigh | EC50 ([10]; S. pneumoniae 6303, Q8): 9.0 mg/kg | EC50 ([10]; S. pneumoniae 6303, Q12): 14.5 mg/kg | Emax ([10]; S. pneumoniae 6303, Q12): 4.95 log10CFU/thigh | 1 log kill ([10]; S. pneumoniae 6303, Q24): 10.8 mg/Kg | EC50 ([10]; S. pneumoniae 6303, Q24): 5.7 mg/kg | Occurrences at MIC (μg/ml) 1 [11]: 0 | Occurrences at MIC (μg/ml) 2 [11]: 0 | Occurrences at MIC (μg/ml) 4 [11]: 0 | Occurrences at MIC (μg/ml) 8 [11]: 0 | Occurrences at MIC (μg/ml) […] [11]: 0 | Occurrences at MIC (μg/ml) ≧16 [11]: 0 | MIC50 ([11]; Moraxella catarrhalis): 120 ng/mL (≈ 142 nM) | MIC90 ([11]; Moraxella catarrhalis): 120 ng/mL (≈ 142 nM) | MIC ([11]; Moraxella catarrhalis, read-out: Occurrences at MIC (μg/ml) 0.03): 1 µg/mL (≈ 1180 nM) | MIC ([11]; Moraxella catarrhalis, read-out: Occurrences at MIC (μg/ml) 0.06): 5 µg/mL (≈ 5920 nM) | MIC ([11]; Moraxella catarrhalis, read-out: Occurrences at MIC (μg/ml) 0.5): 1 µg/mL (≈ 1180 nM) | MIC ([11]; Moraxella catarrhalis, read-out: Occurrences at MIC (μg/ml) ≦0.008): 1 µg/mL (≈ 1180 nM) | MIC [12]: 60 ng/mL (≈ 71 nM)
